Results published in patent US7452865B2, “Antagonistic analogs of GH RH (2003)” (The Administrare's of the Tulane Educational Fund, priority 2004, dated 2008).
Marks after values point to notes of the source that are not given here. Square brackets hold non-standard residues; d marks the D form. Peptide text beside a SMILES is read from it. * marks the point of attachment. Phe(4-Cl) = N[C@@H](Cc1ccc(Cl)cc1)C(=O)O; hArg = N=C(N)NCCCC[C@H](N)C(=O)O; Nle = CCCC[C@H](N)C(=O)O; Abu = CC[C@H](N)C(=O)O; PhAc = O=C(Cc1ccccc1)*

Columns and labels:
IGF-I [1] = experiment: PC-3 xenografts, Experiment 2: serum IGF-I (RIA); type: in vivo, nude mice; conditions: 10 μg/day s.c., 28 days
Text: (§1) For the measurement of GH and IGF-I levels in the serum, as well as IGF-I and IGF-II concentrations in the cytosol fraction of tumors, blood samples and tumor samples were collected and processed as described (Braczkowski R, Schally A V, Plonowski A, Varga J L, Groot K, Krupa M, Armatis P, Cancer 95: 1735-1745, 2002), hereby incorporated by reference. Briefly, blood samples are centrifuged to separate the serum, tumors are homogenized and centrifuged to separate the cytosol fraction. Serum GH is then measured by the double-antibody RIA method. Before measurement by RIA, IGF-I and IGF-II are extracted from serum and cytosol fractions using an acid-ethanol cryoprecipitation method that eliminates most of the IGF binding proteins, which can interfere with the RIA. IGF-I concentration is measured by RIA using IGF-I as a standard and goat anti-IGF-I antibody (both from DSL Inc., Webster, Tex.). IGF-II concentration is measured by RIA using human recombinant IGF-II (Bachem) as a standard and anti-IGF-II monoclonal antibody (Amano International Enzyme, Troy, Va.).
(§2) Male nude mice were implanted s.c. with 3 mm^3 pieces of PC-3 human hormone-independent prostate cancer tissue on both flanks. When tumors reached a volume of approx. 50 mm^3, the mice were divided into 5 experimental groups with 7 to 8 animals in each group and received single daily injections for 28 days as follows: 1. Control (vehicle solution); 2. JV-1-38 (10 μg/day s.c.); 3 Peptide 31 (10 μg/day s.c.); 4. Peptide 67 (10 μg/day s.c.); 5. Peptide 62 (10 μg/day s.c.). Tumor volumes were measured twice a week. The experiment was ended on day 29 by sacrificing the mice under Isoflurane anesthesia. Resulting tumors were cleaned, weighed, and snap-frozen until further analyses. Trunk blood was collected from the abdominal aorta and serum was separated for RIA measurement of IGF-I. Statistical analyses of the measurement results were done by two-tailed t-test; data are presented as the means±S.E.
(§3) Experiment 2 was similar to Experiment 1, with the difference that Experiment 2 was started when PC-3 tumors had grown to approximately 30 mm^3 in volume. At this time, the animals were divided into 8 experimental groups with 8 animals in each group, and received single daily injections for 28 days as follows. 1. Control (vehicle solution); 2. JV-1-38 (10 μg/day s.c.); 3. Peptide 46 (5 μg/day: s.c.); 4. Peptide 77 (5 μg/day s.c); 5. Peptide 76 (5 μg/day s.c.); 6. Peptide 70 (5 μg/day s.c.); 7 Peptide 79 (5 μg/day s.c.); 8. Peptide 80 (5 μg/day s.c.). Further details of Experiment 2 are the same as for Experiment 1.

[2] = tested on: PC-3 human prostate cancer xenografts; experiment: PC-3 xenografts in nude mice, Experiment 1: tumor growth; type: in vivo
Protocol: as §2

[3] = tested on: PC-3 human prostate cancer xenografts; experiment: PC-3 xenografts in nude mice, Experiment 2: tumor growth; type: in vivo
Protocol: as §2, §3

IGF-II = experiment: PC-3 xenografts, Experiment 1: tumor IGF-II (RIA); type: in vivo, nude mice; conditions: 10 μg/day s.c., 28 days
Text: as §1, §2

[4] = tested on: PC-3 human prostate cancer xenografts; experiment: PC-3 xenografts in nude mice, Experiment 3: tumor growth; type: in vivo
Method in brief: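 Male nude mice bearing s.c. PC-3 tumour fragments on both flanks (~65 mm^3 at start), 8–9 per group, given daily s.c. injections at 10 μg/day for 28 days vs vehicle. Tumour volume measured twice weekly; at day 28 tumours weighed and serum IGF-I measured by RIA; ANOVA with Fisher test, means±S.E.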

IGF-I [5] = experiment: PC-3 xenografts, Experiment 1: serum IGF-I (RIA); type: in vivo, nude mice; conditions: 10 μg/day s.c., 28 days
Text: as §1, §2

[6] = tested on: hGH-RH(1-29)NH2 induced GH release; experiment: Inhibition of GH release in superfused rat pituitary system; type: cell-based; conditions: antagonist 30 nM
Method in brief: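 GH output was quantified by double-antibody RIA in superfusates of rat pituitary cells. Peptides were applied for 9 min at various concentrations before a 3-min 1 nM hGH-RH(1-29)NH2 pulse, with further pulses 30–120 min later; net integral responses given as percent of the original response.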

[7] = 10 μg/day s.c., 28 days, vs control

CCCC[C@H](NC(=O)[C@@H](NC(=O)[C@H](CC(=O)O)NC(=O)[C@H](CCC(N)=O)NC(=O)[C@H](CC(C)C)NC(=O)[C@H](CC(C)C)NC(=O)[C@H](CCCCN)NC(=O)[C@H](CCCNC(=N)N)NC(=O)[C@H](C)NC(=O)[C@H](CO)NC(=O)[C@H](CC(C)C)NC(=O)[C@H](CCC(N)=O)NC(=O)[C@H](CC)NC(=O)[C@H](CC(C)C)NC(=O)[C@@H](NC(=O)[C@H](CCCCN)NC(=O)[C@H](CCCNC(=N)N)NC(=O)[C@H](Cc1ccc(OC)cc1)NC(=O)[C@H](CCCCNC(=N)N)NC(=O)[C@H](CC(N)=O)NC(=O)[C@@H](NC(=O)[C@H](Cc1ccc(Cl)cc1)NC(=O)[C@@H](NC(=O)[C@H](C)NC(=O)[C@H](CC(=O)O)NC(=O)[C@@H](CCCNC(=N)N)NC(=O)[C@H](Cc1ccc(O)cc1)NC(=O)Cc1ccccc1)[C@@H](C)CC)[C@@H](C)O)C(C)C)[C@@H](C)CC)C(=O)N[C@H](CCCNC(=N)N)C(=O)N[C@@H](CCCCNC(=N)N)C(N)=O [JV-1-38, reference compound] (PhAc-Y[dR]DAI[Phe(4-Cl)]TN[hArg]Y(Me)RKVL[Abu]QLSARKLLQDI[Nle][dR][hArg]-NH2; N-terminus and C-terminus assumed)
Serum IGF-I (IGF-I [1]): 293 ± 28.0 ng/mL
Tumor volume (mm^3) Final ([2]; 10 μg/day s.c., 28 days): 291 ± 80.4 mm^3
Tumor volume doubling time ([2]; 10 μg/day s.c., 28 days): 12.3 ± 1.04 days
Tumor weight ([2]; 10 μg/day s.c., 28 days): 239 ± 58.0 mg
Tumor volume Final (% inhibition) [2, 7]: (42%)
Tumor weight (% inhibition) [2, 7]: (37%)
Tumor volume (mm^3) Initial ([2]; at start of treatment): 49.2 ± 8.37 mm^3
Tumor volume (mm^3) Initial ([3]; 10 μg/day group, at start of treatment): 29.3 ± 3.8 mm^3
Tumor volume (mm^3) Final ([3]; 10 μg/day s.c., 28 days): 351 ± 72.9 mm^3
Tumor volume doubling time ([3]; 10 μg/day s.c., 28 days): 8.7 ± 0.7 days
Tumor weight ([3]; 10 μg/day s.c., 28 days): 254 ± 52.0 mg
Tumor volume Final (% inhibition) [3, 7]: (0%)
Tumor IGF-II (pg/mg protein) (IGF-II): 208 ± 43.3 pg/mg protein
Tumor IGF-II (% inhibition) (IGF-II; vs control): (5%)
Tumor volume (mm^3) Final ([4]; 10 μg/day s.c., 28 days): 276 ± 48.7** mm^3
Tumor volume doubling time ([4]; 10 μg/day s.c., 28 days): 18.2 ± 1.84 days
Tumor weight ([4]; 10 μg/day s.c., 28 days): 386 ± 62.9 mg
Tumor volume Final (% inhibition) [4, 7]: (66%)
Tumor weight (% inhibition) [4, 7]: (45%)
Tumor volume (mm^3) Initial ([4]; at start of treatment): 68.3 ± 8.08 mm^3
Serum IGF-I (IGF-I [5]): 147 ± 8.49 ng/mL
Serum IGF-I (% inhibition) (IGF-I [5]; vs control): (1%)
GH response (% of control) 0 min ([6]; 1 nM hGH-RH(1-29)NH2 at 0 min): 59 % of control
GH response (% of control) 30 min ([6]; 1 nM hGH-RH(1-29)NH2 at 30 min): 32 % of control
GH response (% of control) 60 min ([6]; 1 nM hGH-RH(1-29)NH2 at 60 min): 28 % of control
GH response (% of control) 90 min ([6]; 1 nM hGH-RH(1-29)NH2 at 90 min): 34 % of control
GH response (% of control) 120 min ([6]; 1 nM hGH-RH(1-29)NH2 at 120 min): 31 % of control
